# Measured values from article PMC10239507, “Development of allosteric and selective CDK2 inhibitors for contraception with negative cooperativity to cyclin binding” (Nature Communications, 2023).
# Columns and labels:
# Experiment in all cases: biochemical
# [1] = target: T1, 371 kinases (kinase named in each endpoint) (Homo sapiens, UniProt O00444); details: PLK4/SAK
# T1 construct: purchased Reaction Biology
# [2] = target: T2, 371 kinases (kinase named in each endpoint) (Homo sapiens, UniProt O75116); details: ROCK2
# T2 construct: purchased Reaction Biology
# [3] = target: T3, 371 kinases (kinase named in each endpoint) (Homo sapiens, UniProt P08631); details: HCK
# T3 construct: purchased Reaction Biology
# [4] = target: T4, 371 kinases (kinase named in each endpoint) (Homo sapiens, UniProt P30530); details: AXL
# T4 construct: purchased Reaction Biology
# [5] = target: T5, 371 kinases (kinase named in each endpoint) (Homo sapiens, UniProt P41743); details: PKCIOTA
# T5 construct: purchased Reaction Biology
# [6] = target: T6, 371 kinases (kinase named in each endpoint) (Homo sapiens, UniProt Q86Y07); details: VRK2
# T6 construct: purchased Reaction Biology
# [7] = target: T7, 371 kinases (kinase named in each endpoint) (Homo sapiens, UniProt Q9NY57); details: STK32B/YANK2
# T7 construct: purchased Reaction Biology
# T7 sequence (Q9NY57 whole entry): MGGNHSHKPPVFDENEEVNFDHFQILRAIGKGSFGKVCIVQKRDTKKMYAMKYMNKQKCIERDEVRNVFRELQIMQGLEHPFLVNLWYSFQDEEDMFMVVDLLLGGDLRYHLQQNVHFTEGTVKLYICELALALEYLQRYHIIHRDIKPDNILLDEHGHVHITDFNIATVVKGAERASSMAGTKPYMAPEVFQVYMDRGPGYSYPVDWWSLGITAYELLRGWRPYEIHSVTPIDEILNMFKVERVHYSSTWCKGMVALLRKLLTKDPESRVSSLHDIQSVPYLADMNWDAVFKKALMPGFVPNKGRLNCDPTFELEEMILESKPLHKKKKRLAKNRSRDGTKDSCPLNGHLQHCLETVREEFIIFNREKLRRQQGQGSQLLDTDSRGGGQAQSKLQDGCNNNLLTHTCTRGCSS
# T4 sequence (P30530 26-894): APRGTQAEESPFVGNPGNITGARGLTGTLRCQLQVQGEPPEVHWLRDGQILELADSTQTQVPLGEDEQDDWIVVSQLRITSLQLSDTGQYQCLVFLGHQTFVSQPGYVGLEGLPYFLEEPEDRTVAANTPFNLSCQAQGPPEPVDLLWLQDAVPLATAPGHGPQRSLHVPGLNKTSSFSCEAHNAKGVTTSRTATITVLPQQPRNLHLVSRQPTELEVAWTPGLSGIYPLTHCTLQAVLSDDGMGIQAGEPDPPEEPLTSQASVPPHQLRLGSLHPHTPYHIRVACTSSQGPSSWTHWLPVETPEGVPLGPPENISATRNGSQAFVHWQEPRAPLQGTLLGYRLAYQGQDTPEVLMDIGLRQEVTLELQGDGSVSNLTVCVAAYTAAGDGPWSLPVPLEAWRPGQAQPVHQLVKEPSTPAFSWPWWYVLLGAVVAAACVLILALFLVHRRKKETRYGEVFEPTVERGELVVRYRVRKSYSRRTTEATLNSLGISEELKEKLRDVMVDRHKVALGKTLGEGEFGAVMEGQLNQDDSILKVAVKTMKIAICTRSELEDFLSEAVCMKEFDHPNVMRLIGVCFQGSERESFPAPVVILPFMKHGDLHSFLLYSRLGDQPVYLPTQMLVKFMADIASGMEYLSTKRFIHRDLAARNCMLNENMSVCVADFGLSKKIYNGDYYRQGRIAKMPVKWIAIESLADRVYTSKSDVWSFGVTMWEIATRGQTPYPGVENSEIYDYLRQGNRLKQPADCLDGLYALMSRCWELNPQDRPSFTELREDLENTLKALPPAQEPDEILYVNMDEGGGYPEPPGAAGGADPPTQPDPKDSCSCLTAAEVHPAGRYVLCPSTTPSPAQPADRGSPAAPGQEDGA
# T1 sequence (O00444 whole entry): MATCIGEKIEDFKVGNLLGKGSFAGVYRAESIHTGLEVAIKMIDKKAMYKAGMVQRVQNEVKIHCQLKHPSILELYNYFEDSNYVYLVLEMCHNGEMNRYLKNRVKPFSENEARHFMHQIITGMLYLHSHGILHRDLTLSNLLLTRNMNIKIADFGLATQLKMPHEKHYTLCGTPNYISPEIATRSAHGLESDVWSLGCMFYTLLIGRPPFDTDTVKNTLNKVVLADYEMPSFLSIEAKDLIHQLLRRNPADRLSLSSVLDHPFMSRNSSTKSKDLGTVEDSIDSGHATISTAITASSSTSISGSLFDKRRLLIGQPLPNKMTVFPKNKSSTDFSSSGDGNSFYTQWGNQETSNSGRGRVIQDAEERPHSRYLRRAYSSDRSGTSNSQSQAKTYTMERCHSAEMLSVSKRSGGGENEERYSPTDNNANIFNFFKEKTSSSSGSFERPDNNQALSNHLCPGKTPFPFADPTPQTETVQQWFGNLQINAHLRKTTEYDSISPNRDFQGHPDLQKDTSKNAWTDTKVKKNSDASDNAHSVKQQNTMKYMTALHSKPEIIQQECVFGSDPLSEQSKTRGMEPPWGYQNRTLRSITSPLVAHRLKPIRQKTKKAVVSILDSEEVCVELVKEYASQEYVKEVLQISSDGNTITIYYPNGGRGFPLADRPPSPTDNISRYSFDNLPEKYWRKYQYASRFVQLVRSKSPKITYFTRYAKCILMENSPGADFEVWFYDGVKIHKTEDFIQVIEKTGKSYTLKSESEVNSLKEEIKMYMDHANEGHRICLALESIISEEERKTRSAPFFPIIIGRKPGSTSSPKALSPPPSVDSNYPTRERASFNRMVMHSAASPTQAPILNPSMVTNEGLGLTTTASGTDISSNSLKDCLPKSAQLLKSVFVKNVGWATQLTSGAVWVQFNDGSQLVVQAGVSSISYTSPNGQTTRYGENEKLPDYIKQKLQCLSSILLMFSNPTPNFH
# T5 sequence (P41743 whole entry): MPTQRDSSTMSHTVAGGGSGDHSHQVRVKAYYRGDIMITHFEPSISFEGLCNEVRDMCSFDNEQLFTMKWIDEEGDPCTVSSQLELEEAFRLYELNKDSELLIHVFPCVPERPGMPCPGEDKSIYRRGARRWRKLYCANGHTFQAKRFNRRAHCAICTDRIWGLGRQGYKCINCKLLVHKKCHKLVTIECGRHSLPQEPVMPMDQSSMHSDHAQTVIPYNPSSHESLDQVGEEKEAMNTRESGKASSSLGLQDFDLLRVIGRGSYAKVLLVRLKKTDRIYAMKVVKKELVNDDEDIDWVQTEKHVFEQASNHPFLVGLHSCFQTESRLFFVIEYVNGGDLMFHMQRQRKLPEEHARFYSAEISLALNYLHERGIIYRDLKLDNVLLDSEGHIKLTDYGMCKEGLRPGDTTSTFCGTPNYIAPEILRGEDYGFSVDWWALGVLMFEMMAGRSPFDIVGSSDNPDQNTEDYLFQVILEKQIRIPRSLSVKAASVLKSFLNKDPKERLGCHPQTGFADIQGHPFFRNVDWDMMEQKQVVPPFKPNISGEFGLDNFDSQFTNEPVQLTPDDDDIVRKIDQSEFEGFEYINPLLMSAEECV
# T2 sequence (O75116 whole entry): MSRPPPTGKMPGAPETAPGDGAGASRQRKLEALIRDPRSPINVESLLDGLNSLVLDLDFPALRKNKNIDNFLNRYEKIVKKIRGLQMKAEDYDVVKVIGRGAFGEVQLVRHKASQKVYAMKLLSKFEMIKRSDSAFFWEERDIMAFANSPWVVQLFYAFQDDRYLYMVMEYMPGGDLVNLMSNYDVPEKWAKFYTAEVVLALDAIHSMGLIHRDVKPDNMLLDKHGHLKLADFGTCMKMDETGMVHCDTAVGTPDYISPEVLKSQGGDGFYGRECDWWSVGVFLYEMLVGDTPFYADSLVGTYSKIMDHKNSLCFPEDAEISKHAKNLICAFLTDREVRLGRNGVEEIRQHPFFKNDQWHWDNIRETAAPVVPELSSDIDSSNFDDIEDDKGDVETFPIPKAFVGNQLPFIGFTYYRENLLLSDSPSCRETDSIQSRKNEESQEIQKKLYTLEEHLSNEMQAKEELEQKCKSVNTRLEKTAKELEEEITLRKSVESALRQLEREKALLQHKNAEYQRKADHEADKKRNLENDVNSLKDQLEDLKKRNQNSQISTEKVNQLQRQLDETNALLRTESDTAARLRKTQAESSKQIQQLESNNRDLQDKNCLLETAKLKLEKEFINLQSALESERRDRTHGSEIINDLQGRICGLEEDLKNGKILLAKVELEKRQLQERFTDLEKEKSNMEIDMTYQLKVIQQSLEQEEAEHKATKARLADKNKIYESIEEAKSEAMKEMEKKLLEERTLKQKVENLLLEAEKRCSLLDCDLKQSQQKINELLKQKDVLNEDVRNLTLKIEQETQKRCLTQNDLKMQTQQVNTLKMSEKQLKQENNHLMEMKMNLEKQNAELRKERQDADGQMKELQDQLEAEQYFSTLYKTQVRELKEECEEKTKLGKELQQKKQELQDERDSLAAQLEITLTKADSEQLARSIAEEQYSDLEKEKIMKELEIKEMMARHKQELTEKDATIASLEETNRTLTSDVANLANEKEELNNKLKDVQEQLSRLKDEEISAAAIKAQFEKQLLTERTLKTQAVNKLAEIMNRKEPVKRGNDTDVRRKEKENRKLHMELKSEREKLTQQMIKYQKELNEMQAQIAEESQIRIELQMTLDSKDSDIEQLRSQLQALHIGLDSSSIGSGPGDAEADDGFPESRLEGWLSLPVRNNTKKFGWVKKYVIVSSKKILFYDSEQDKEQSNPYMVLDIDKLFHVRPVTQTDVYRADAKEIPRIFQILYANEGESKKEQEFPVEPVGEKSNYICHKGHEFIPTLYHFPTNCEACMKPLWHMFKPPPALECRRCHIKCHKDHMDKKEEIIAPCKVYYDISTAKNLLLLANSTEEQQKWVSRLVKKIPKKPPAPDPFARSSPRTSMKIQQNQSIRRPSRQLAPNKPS
# T3 sequence (P08631 whole entry): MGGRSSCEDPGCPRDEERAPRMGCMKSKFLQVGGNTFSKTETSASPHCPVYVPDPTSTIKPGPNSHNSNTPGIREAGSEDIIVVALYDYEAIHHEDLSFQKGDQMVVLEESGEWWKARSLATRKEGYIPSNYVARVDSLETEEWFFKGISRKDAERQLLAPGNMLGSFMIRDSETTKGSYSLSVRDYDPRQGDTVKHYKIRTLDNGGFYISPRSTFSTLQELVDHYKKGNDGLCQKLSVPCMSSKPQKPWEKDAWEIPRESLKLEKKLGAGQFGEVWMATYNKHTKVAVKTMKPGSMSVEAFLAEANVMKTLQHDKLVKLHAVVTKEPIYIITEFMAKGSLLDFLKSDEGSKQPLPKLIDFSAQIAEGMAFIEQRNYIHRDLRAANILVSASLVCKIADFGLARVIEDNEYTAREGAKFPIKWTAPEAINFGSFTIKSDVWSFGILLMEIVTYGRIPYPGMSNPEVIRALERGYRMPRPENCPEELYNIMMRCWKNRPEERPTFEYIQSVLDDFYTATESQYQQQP
smiles,measurement,setting,value
"O=C(O)c1cc(C(F)(F)F)ccc1NCCc1c[nH]c2cc(Br)ccc12 [Compound 5, 2-((2-(6-Bromo-1H-indol-3-yl)ethyl)amino)−5-(trifluoromethyl)benzoic Acid]",activity at 10 µM,[1],91.2 ± 1.2%
same,activity at 10 µM,[2],90 ± 2%
same,activity at 10 µM,[3],86.2 ± 0.4%
same,activity at 10 µM,[4],67.9 ± 1.8%
same,activity at 10 µM,[5],96.8 ± 0.8%
same,activity at 10 µM,[6],94.6 ± 1%
same,activity at 10 µM,[7],154.6 ± 0.7%
